In patent US20230157952A1, “METHOD FOR IMPROVING THE STABILITY OF A PHARMACEUTICAL COMPOSITION COMPRISING A HIGH PENETRATION DRUG, AND THE PHARMACEUTICAL COMPOSITION OBTAINED THEREFROM” (Techfields Inc., priority 2020, published 2023):

Assays:
[1] = Effect of concentration on the stability of the solution (purity over time); conditions: at 5° C. in 15% ethanol
[2] = Effect of solvent on the stability of the solution (purity at various pH values and temperature); type: physicochemical

CCN(CC)CCOC(=O)c1ccccc1OC(C)=O.Cl [2-(diethylamino)ethyl acetylsalicylate•HCl]
Purity at day 0 ([1]; 0.01 wt %): 99.1%
Purity at day 3 ([1]; 0.01 wt %): 93.1%
Purity at day 7 ([1]; 0.01 wt %): 88.2%
Purity at day 14 ([1]; 0.01 wt %): 81.4%
Purity at day 21 ([1]; 0.01 wt %): 74.9%
Purity at day 28 ([1]; 0.01 wt %): 68.3%
Purity at day 60 ([1]; 0.01 wt %): 47.1%
Purity at day 90 ([1]; 0.01 wt %): 30.1%
Purity at day 0 ([1]; 0.1 wt %): 99.2%
Purity at day 3 ([1]; 0.1 wt %): 95.8%
Purity at day 7 ([1]; 0.1 wt %): 93.1%
Purity at day 14 ([1]; 0.1 wt %): 89.5%
Purity at day 21 ([1]; 0.1 wt %): 86.6%
Purity at day 28 ([1]; 0.1 wt %): 83.7%
Purity at day 60 ([1]; 0.1 wt %): 71.8%
Purity at day 90 ([1]; 0.1 wt %): 59.9%
Purity at day 0 ([1]; 1 wt %): 99.3%
Purity at day 3 ([1]; 1 wt %): 97.6%
Purity at day 7 ([1]; 1 wt %): 96.9%
Purity at day 14 ([1]; 1 wt %): 95.2%
Purity at day 21 ([1]; 1 wt %): 93.7%
Purity at day 28 ([1]; 1 wt %): 91.5%
Purity at day 60 ([1]; 1 wt %): 82.7%
Purity at day 90 ([1]; 1 wt %): 74.1%
Purity at day 0 ([1]; 3 wt %): 99.5%
Purity at day 14 ([1]; 3 wt %): 96.4%
Purity at day 21 ([1]; 3 wt %): 94.5%
Purity at day 28 ([1]; 3 wt %): 92.7%
Purity at day 60 ([1]; 3 wt %): 86.1%
Purity at day 90 ([1]; 3 wt %): 80.2%
Purity at day 0 ([1]; 5 wt %): 99.5%
Purity at day 3 ([1]; 5 wt %): 99.3%
Purity at day 7 ([1]; 5 wt %): 99.1%
Purity at day 60 ([1]; 5 wt %): 96.7%
Purity at day 90 ([1]; 5 wt %): 96.1%
Purity at day 0 ([1]; 7 wt %): 99.6%
Purity at day 3 ([1]; 7 wt %): 99.4%
Purity at day 7 ([1]; 7 wt %): 99.3%
Purity at day 14 ([1]; 7 wt %): 99.1%
Purity at day 90 ([1]; 7 wt %): 97.2%
Purity at day 0 ([1]; 8 wt %): 99.7%
Purity at day 3 ([1]; 8 wt %): 99.5%
Purity at day 7 ([1]; 8 wt %): 99.3%
Purity at day 14 ([1]; 8 wt %): 99.3%
Purity at day 90 ([1]; 8 wt %): 97.4%
Purity at day 0 ([1]; 10 wt %): 99.6%
Purity at day 3 ([1]; 10 wt %): 99.7%
Purity at day 7 ([1]; 10 wt %): 99.4%
Purity at day 14 ([1]; 10 wt %): 99.1%
Purity at day 90 ([1]; 10 wt %): 97.2%
Purity at day 0 ([1]; 15 wt %): 99.5%
Purity at day 3 ([1]; 15 wt %): 99.5%
Purity at day 7 ([1]; 15 wt %): 99.3%
Purity at day 14 ([1]; 15 wt %): 99.2%
Purity at day 90 ([1]; 15 wt %): 97.3%
Purity at day 0 ([1]; 20 wt %): 99.5%
Purity at day 3 ([1]; 20 wt %): 99.6%
Purity at day 7 ([1]; 20 wt %): 99.3%
Purity at day 14 ([1]; 20 wt %): 99.2%
Purity at day 90 ([1]; 20 wt %): 97.3%
Purity at day 0 ([1]; 30 wt %): 99.5%
Purity at day 3 ([1]; 30 wt %): 99.5%
Purity at day 7 ([1]; 30 wt %): 99.4%
Purity at day 14 ([1]; 30 wt %): 99.4%
Purity at day 90 ([1]; 30 wt %): 97.4%
Purity at day 0 ([1]; 50 wt %): 99.7%
Purity at day 3 ([1]; 50 wt %): 99.6%
Purity at day 7 ([1]; 50 wt %): 99.5%
Purity at day 14 ([1]; 50 wt %): 99.3%
Purity at day 21 ([1]; 50 wt %): 99.2%
Purity at day 90 ([1]; 50 wt %): 97.4%
Stability when the concentration is 0.1% or lower [1]: not stable
Stability of the solution at a temperature higher than 40° C. and a pH lower than 3 or greater than 6 ([2]; 7% solution in water): not stable
Effect of the solvent on the stability of the solution ([2]; 7% solution, 15% ethanol): did not affect the stability
Effect of the solvent on the stability of the solution ([2]; 7% solution, 25% ethanol): did not affect the stability
Effect of the solvent on the stability of the solution ([2]; 7% solution, 50% ethanol): did not affect the stability
Effect of the amount of ethanol on the stability of the solution ([2]; 7% solution, tables 51-54 (water, 15%, 25%, 50% ethanol)): did not affect the stability
